What is called IC50 is the concentration needed to halve the response being measured.

human URAT1, sequence (Q96S37 whole entry): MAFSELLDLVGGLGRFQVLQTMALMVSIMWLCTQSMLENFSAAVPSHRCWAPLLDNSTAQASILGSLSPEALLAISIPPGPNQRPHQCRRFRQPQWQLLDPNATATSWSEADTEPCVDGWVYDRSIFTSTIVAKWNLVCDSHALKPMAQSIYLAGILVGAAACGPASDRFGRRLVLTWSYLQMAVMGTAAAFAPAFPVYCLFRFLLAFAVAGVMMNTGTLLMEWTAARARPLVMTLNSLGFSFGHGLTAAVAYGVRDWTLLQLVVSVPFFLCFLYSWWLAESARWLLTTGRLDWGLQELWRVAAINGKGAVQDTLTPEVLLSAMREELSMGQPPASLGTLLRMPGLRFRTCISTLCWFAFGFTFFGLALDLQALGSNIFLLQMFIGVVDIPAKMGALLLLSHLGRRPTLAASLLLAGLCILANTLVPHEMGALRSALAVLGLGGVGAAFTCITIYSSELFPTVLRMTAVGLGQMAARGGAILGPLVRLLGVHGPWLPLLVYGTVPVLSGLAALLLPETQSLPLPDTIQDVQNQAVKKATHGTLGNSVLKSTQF

For this assay, the target named is human URAT1 (Homo sapiens (Human), UniProt Q96S37). Description: Test for uric acid transport inhibition using human URAT1 expression cell. Format: cell-based. As to conditions: human URAT1 stable expression CHO cell; 14C-labeled uric acid 38 μM final concentration; incorporation at room temperature for 5 minutes; 100% window defined with benzbromarone 100 μM; read-out: URAT1 Inhibitory Activity (IC50). The procedure:
In this Example, it was evaluated whether the Example compound has the URAT1 inhibitory activity.
Human URAT1 full-length cDNA was introduced to an expression vector pcDNA5/FRT/V5-His TOPO (registered trademark) (Invitrogen Corporation). The obtained expression plasmid was introduced to Chinese hamster ovary cell (hereinafter referred to as the CHO cell) by the liposome method using Lipofectamine LTX (Invitrogen), and cultured in a selection medium including hygromycin, whereby to prepare human URAT1 stable expression cell.
The human URAT1 expression CHO cell was cultured using D-MEM/F-12 (1:1) mixed medium including 10% bovine fetal serum and hygromycin at 37° C. in the presence of 5% CO2. The cells were seeded onto a 96 well plate (Corning Incorporated) in 0.8×10^5 cells/well, and after 24 hours, the test for uric acid transport inhibition below was performed.
The medium was removed by aspiration, and then the cells were washed once with an assay buffer including 125 mM of sodium gluconate, 4.8 mM of potassium gluconate, 1.2 mM of potassium dihydrogen phosphate, 1.2 mM of magnesium sulfate, 1.3 mM of calcium gluconate and 5.6 mM of glucose. 50 μL assay buffer including the test compound in various concentrations was added, and further 50 μL assay buffer including a radioactive ligand (uric acid labeled with ^14C; 38 μM final concentration) was added, and incorporation reaction was performed at room temperature for 5 minutes. Immediately after completion of the reaction, the reaction mixture was washed twice with 100 μL ice-cold assay buffer, and 100 μL of 0.1 N sodium hydroxide was added. The reaction mixture was stirred to lyse the cells, and 4 mL Hionic-Fluor (Packard BioScience CO) was added, and then the radioactivity was measured with a liquid scintillation counter (Beckman Coulter, Inc. and Packard BioScience CO).
The radioactivity when each concentration of the test compound was added (uric acid incorporation activity, %) was calculated in which the difference of the radioactivity when the test compound was not added (DMSO added), and the radioactivity when a positive control compound, benzbromarone (known URAT1 inhibitor) was added in 100 μM, was taken as 100%, and the concentration of the test compound when the uric acid incorporation activity was inhibited to 50% (IC50) was obtained.
`Cc1cccc(C)c1Cn1cc(C)c2ccc(C(=O)O)cc21` [Example 61, 1-(2,6-dimethylbenzyl)-3-methyl-1H-indole-6-carboxylic acid]: the IC50 was 46 nM. For the compound `Cc1cccc(C)c1Cn1cc(C)c2ccc(CC(=O)O)cc21` [Example 64, 2-[1-(2,6-dimethylbenzyl)-3-methyl-1H-indole-6-yl]acetic acid], the half-inhibitory concentration (IC50) was 22 nM.

With `Cc1cccc(C)c1Cn1nc(C)c2ccc(CC(=O)O)cc21` [Example 66, 2-[1-(2,6-dimethylbenzyl)-3-methyl-1H-indazole-6-yl]acetic acid], the half-inhibitory concentration (IC50) was 67 nM. In the case of `Cc1cccc(C)c1Cn1cc(Cl)c2ccc(CC(=O)O)cc21` [Example 68, 2-[3-chloro-1-(2,6-dimethylbenzyl)-1H-indole-6-yl]acetic acid] it was 30 nM. Take `Cc1cccc(C)c1CN1CCc2ccc(CC(=O)O)cc21` [Example 75, 2-[1-(2,6-dimethylbenzyl)-2,3-dihydro-1H-indole-6-yl]acetic acid]: the IC50 worked out at 77 nM.

In the case of `Cc1cccc(C)c1CN1CC(C)c2ccc(CC(=O)O)cc21` (stereo not drawn) [Example 78, (3-RS)-2-[1-(2,6-dimethylbenzyl)-2,3-dihydro-3-methyl-1H-indole-6-yl]acetic acid], the half-maximal inhibitory concentration (IC50) stood at 24 nM. Turning to `Cc1cccc(C)c1CN1CC(C)(C)c2ccc(CC(=O)O)cc21` [Example 80, 2-[1-(2,6-dimethylbenzyl)-2,3-dihydro-3,3-dimethyl-1H-indole-6-yl]acetic acid], the IC50 turned out to be 18 nM.

Regarding `Cc1cn(Cc2c(Cl)cccc2Cl)c2cc(CC(=O)O)ccc12` [Example 82, 2-[1-(2,6-dichlorobenzyl)-3-methyl-1H-indole-6-yl]acetic acid], the half-maximal inhibitory concentration (IC50) was determined as 15 nM. The figure for `Cc1cn(Cc2cccc(Cl)c2Cl)c2cc(CC(=O)O)ccc12` [Example 84, 2-[1-(2,3-dichlorobenzyl)-3-methyl-1H-indole-6-yl]acetic acid] is 53 nM; for `Cc1ccc(C)c(Cn2cc(C)c3ccc(CC(=O)O)cc32)c1` [Example 85, 2-[1-(2,5-dimethylbenzyl)-3-methyl-1H-indole-6-yl]acetic acid] it is 63 nM.

Turning to `Cc1cn(Cc2c(F)cccc2Cl)c2cc(CC(=O)O)ccc12` [Example 86, 2-[1-(2-chloro-6-fluorobenzyl)-3-methyl-1H-indole-6-yl]acetic acid], the half-maximal inhibitory concentration (IC50) amounted to 28 nM.

With `Cc1cn(Cc2ccccc2Cl)c2cc(CC(=O)O)ccc12` [Example 87, 2-[1-(2-chlorobenzyl)-3-methyl-1H-indole-6-yl]acetic acid], the IC50 was determined as 88 nM. In the case of `Cc1cn(Cc2cc3c(cc2Cl)OCO3)c2cc(CC(=O)O)ccc12` [Example 88, 2-{1-[(6-chlorobenzo[d][1,3]dioxol-5-yl)methyl]-3-methyl-1H-indole-6-yl}acetic acid] it was 98 nM; in that of `Cc1cn(Cc2c(Cl)cccc2Cl)c2cc(CCC(=O)O)ccc12` [Example 89, 3-[1-(2,6-dichlorobenzyl)-3-methyl-1H-indole-6-yl]propionic acid], 23 nM; in that of `CCc1cn(Cc2c(C)cccc2C)c2cc(C(=O)O)ccc12` [Example 91, 1-(2,6-dimethylbenzyl)-3-ethyl-1H-indole-6-carboxylic acid], 43 nM. The figure for `Cc1cccc(C)c1Cn1cc(C(C)C)c2ccc(C(=O)O)cc21` [Example 92, 1-(2,6-dimethylbenzyl)-3-isopropyl-1H-indole-6-carboxylic acid] is 71 nM. The figure for `Cc1nn(Cc2c(Cl)cccc2Cl)c2cc(CC(=O)O)ccc12` [Example 97, 2-[1-(2,6-dichlorobenzyl)-3-methyl-1H-indazole-6-yl]acetic acid] is 18 nM. In the case of `Cc1nn(Cc2cccc(Cl)c2Cl)c2cc(CC(=O)O)ccc12` [Example 99, 2-[1-(2,3-dichlorobenzyl)-3-methyl-1H-indazole-6-yl]acetic acid], the half-maximal inhibitory concentration (IC50) amounted to 41 nM.

In the case of `Cc1cccc(Cl)c1Cn1nc(C)c2ccc(CC(=O)O)cc21` [Example 102, 2-[1-(2-chloro-6-methylbenzyl)-3-methyl-1H-indazole-6-yl]acetic acid], the IC50 was 52 nM. Regarding `Cc1nn(Cc2c(F)cccc2Cl)c2cc(CC(=O)O)ccc12` [Example 104, 2-[1-(2-chloro-6-fluorobenzyl)-3-methyl-1H-indazole-6-yl]acetic acid], the concentration for half-maximal inhibition (IC50) stood at 101 nM. As for `Cc1nn(Cc2csc3ccc(Cl)cc23)c2cc(CC(=O)O)ccc12` [Example 106, 2-{1-[(5-chlorobenzo[b]thiophene-3-yl)methyl]-3-methyl-1H-indazole-6-yl}acetic acid], the IC50 is 55 nM. `Cc1nn(Cc2cccc3ccccc23)c2cc(CC(=O)O)ccc12` [Example 107, 2-[3-methyl-1-(naphthalene-1-ylmethyl)-1H-indazole-6-yl]acetic acid]: the half-inhibitory concentration (IC50) was found to be 77 nM. The figure for `Cc1cc(C)c(Cn2nc(C)c3ccc(CC(=O)O)cc32)c(C)c1` [Example 108, 2-[3-methyl-1-(2,4,6-trimethylbenzyl)-1H-indazole-6-yl]acetic acid] is 94 nM. In the case of `Cc1nn(Cc2c(Cl)cccc2C#N)c2cc(CC(=O)O)ccc12` [Example 109, 2-[1-(2-chloro-6-cyanobenzyl)-3-methyl-1H-indazole-6-yl]acetic acid] it was 335 nM; in that of `Cc1nn(Cc2cccc3cccnc23)c2cc(CC(=O)O)ccc12` [Example 115, 2-[3-methyl-1-(quinoline-8-ylmethyl)-1H-indazole-6-yl]acetic acid], 394 nM; in that of `Cc1cccc(C)c1Cn1nc(C)c2ccc(C(=O)O)cc21` [Example 117, 1-(2,6-dimethylbenzyl)-3-methyl-1H-indazole-6-carboxylic acid], 91 nM. As for `Cc1nn(Cc2c(Cl)cccc2Cl)c2cc(C(=O)O)ccc12` [Example 119, 1-(2,6-dichlorobenzyl)-3-methyl-1H-indazole-6-carboxylic acid], the IC50 was 65 nM. The figure for `Cc1nn(Cc2cccc(Cl)c2Cl)c2cc(C(=O)O)ccc12` [Example 120, 1-(2,3-dichlorobenzyl)-3-methyl-1H-indazole-6-carboxylic acid] is 91 nM.

Turning to `Cc1cccc(C)c1Cn1nc(C)c2ccc(CCC(=O)O)cc21` [Example 121, 3-[1-(2,6-dimethylbenzyl)-3-methyl-1H-indazole-6-yl]propionic acid], the IC50 was 41 nM. The figure for `Cc1nn(Cc2c(Cl)cccc2Cl)c2cc(CCC(=O)O)ccc12` [Example 122, 3-[1-(2,6-dichlorobenzyl)-3-methyl-1H-indazole-6-yl]propionic acid] is 10 nM; for `Cc1nn(Cc2csc3ccc(Cl)cc23)c2cc(CCC(=O)O)ccc12` [Example 124, 3-{1-[(5-chlorobenzo[b]thiophene-3-yl)methyl]-3-methyl-1H-indazole-6-yl}propionic acid] it is 31 nM.

As to `Cc1nn(Cc2c(Cl)cccc2C#N)c2cc(CCC(=O)O)ccc12` [Example 125, 3-[1-(2-chloro-6-cyanobenzyl)-3-methyl-1H-indazole-6-yl]propionic acid], the 50% inhibitory concentration (IC50) is 72 nM. The figure for `Cc1nn(Cc2c(Cl)cccc2Cl)c2cc(C(O)C(=O)O)ccc12` (stereo not drawn) [Example 128, [1-(2,6-dichlorobenzyl)-3-methyl-1H-indazole-6-yl]hydroxyacetic acid] is 576 nM.

For the origin of these results see patent US8987473B2, “Ring-fused compound” (Sato Pharmaceutical Co., Ltd., priority 2011, dated 2015).
